Measured values taken from patent publication US5231093A, “Carbamate derivatives of 4-amino-3-isoxazolidinones, 3-amino-1-hydroxypyrrolidin-2-ones and 1-amino-1-cyclopropanecarboxylic acid analogs” (priority 1992, dated 1993).
Counter-ions that a name gives are not always drawn. Like-named read-outs stand apart in the source and are kept apart here.

What was measured:
acetylcholinesterase = biological target: T1, acetylcholinesterase (Rattus norvegicus, UniProt P37136); experiment: In Vitro Inhibition of Acetylcholinesterase Activity in Rat Striatum; type: biochemical
T1 construct: corpora striata dissected free, weighed and homogenized in 19 volumes; from tissue; host or cells: corpus striatum of male Wistar rats, whole homogenate in 0.05M phosphate buffer pH 7.2
T1 sequence (P37136 32-614): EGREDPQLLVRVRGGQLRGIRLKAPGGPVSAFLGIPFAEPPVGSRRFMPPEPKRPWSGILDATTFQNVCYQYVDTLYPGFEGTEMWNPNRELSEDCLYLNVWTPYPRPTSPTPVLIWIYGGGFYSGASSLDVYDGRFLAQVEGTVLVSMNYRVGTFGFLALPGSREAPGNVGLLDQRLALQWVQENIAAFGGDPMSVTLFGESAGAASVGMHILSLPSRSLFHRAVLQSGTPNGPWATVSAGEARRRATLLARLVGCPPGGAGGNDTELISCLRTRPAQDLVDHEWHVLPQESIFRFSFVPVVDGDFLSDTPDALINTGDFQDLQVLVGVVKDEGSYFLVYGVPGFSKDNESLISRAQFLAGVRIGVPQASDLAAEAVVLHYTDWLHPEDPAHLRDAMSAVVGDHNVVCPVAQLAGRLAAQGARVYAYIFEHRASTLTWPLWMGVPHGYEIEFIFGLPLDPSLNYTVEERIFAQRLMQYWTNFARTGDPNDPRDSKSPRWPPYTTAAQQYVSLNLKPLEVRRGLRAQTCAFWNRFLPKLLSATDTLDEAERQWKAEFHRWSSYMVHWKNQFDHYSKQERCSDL
Source text: Cholinesterases are found throughout the body, both in the brain and in serum. However, only brain acetylcholinesterase (AChE) distribution is correlated with central cholinergic innervation.
The method described below was used in this invention for assaying cholinesterase activity. This is a modification of the method of Ellman et al., Biochem. Pharmacol. 7, 88 (1961).
1. 0.05M Phosphate buffer, pH 7.2
(c) add (a) to (b) until pH reaches 7.2
4. […] Drugs are serially diluted (1:10) such that the final concentration (in cuvette) is 10^-4 M and screened for activity. If active, IC50 values are determined from the inhibitory activity of subsequent concentrations.
Male Wistar rats are decapitated, brains rapidly removed, corpora striata dissected free, weighed and homogenized in 19 volumes (approximately 7 mg protein/ml) of 0.05M phosphate buffer, pH 7.2 using a Potter-Elvehjem homogenizer. A 25 microliter aliquot of the homogenate is added to 1.0 milliter vehicle or various concentrations of the test drug and preincubated for 10 minutes at 37° C.
Enzyme activity is measured with the Beckman DU-50 spectrophotometer. This method can be used for IC50 determinations and for measuring kinetic constants.
Reagents are added to the blank and sample cuvettes as follows:
Blank values are determined for each run to control for non-enzymatic hydrolysis of substrate and these values are automatically subtracted by the kindata program available on kinetics soft-pac module. This program also calculates the rate of absorbance change for each cuvette.
Substrate concentration is 10 mM diluted 1:2 in assay yielding final concentration of 5 mM. DTNB concentration is 0.5 mM yielding 0.25 mM final concentration. [formula] IC50 values are calculated from log-probit analysis

[1] = system: Scopolamine Induced Memory Deficit; type: in vivo, mice
Procedure: In this assay mice are tested for their ability to remember an unpleasant stimulus for a period of 24 hours. A mouse is placed in a chamber that contains a dark compartment; a strong incandescent light drives it to the dark compartment, where an electric shock is administered through metal plates on the floor. The animal is removed from the testing apparatus and tested again, 24 hours later, for the ability to remember the electric shock.
If scopolamine, an anticholinergic agent that is known to cause memory impairment, is administered before an animal's initial exposure to the test chamber, the animal re-enters the dark compartment shortly after being placed in the test chamber 24 hours later. This effect of scopolamine is blocked by an active test compound, resulting in a greater interval before re-entry into the dark compartment.
The results for an active compound are expressed as the percent of a group of animals in which the effect of scopolamine is blocked, as manifested by an increased interval between being placed in the test chamber and re-entering the dark compartment.
Results of this assay for some of the compounds of this invention and those for tacrine (reference compound) are presented in Table 2.

Row | SMILES | IC50 (acetylcholinesterase) | % of Animals with Scopolamine Induced Memory Deficit Reversal ([1]; mice, 0.3 mg/kg of body weight, s.c, 24 hours) | % of Animals with Scopolamine Induced Memory Deficit Reversal ([1]; mouse, in vivo, 0.63 mg/kg)
1 | CN1CC[C@@]2(C)c3cc(OC(=O)N[C@@H]4CCN(OCc5ccccc5)C4=O)ccc3N(C)[C@@H]12 [(3aS-cis)-1,2,3,3a,8,8a-Hexahydro-1,3a,8-trimethylpyrrolo-[2,3-b]indol-5yl [2-oxo-1-(phenylmethoxy)-3R-pyrrolidinyl]carbamate] | 67 nM | – | –
2 | CN1CC[C@@]2(C)c3cc(OC(=O)N[C@@H]4CCN(O)C4=O)ccc3N(C)[C@@H]12 [(3aS-cis)-1,2,3,3a,8,8a-Hexahydro-1,3a,8-trimethylpyrrolo[2,3-b]indol-5-yl [2-oxo-1-(hydroxy)-3R-pyrrolidinyl]carbamate, citrate salt] | 2310 nM | – | –
3 | CN1CC[C@@]2(C)c3cc(OC(=O)N[C@@H]4CON(Cc5ccccc5)C4=O)ccc3N(C)[C@@H]12 [(3aS-cis)-1,2,3,3a,8,8a-Hexahydro-1,3a,8-trimethypyrrolo-[2,3-b]indol-5-yl [2-(phenylmethyl)-3-oxo-4R-isoxazolidinyl]-carbamate hemihydrate] | 500 nM | 27% | –
4 | Nc1c2c(nc3ccccc13)CCCC2 [Tacrine, reference compound] | – | – | 13%
